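Method: 48-hour compound exposure of cells in 96-well plates, five concentrations, linear interpolation of endpoints. GI50 is the concentration that inhibits growth by half.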 Active and inactive are the calls of the source. No stated cut-off is given here; in the data, active = GI50 up to about 1.1 µM and inactive = higher.
Legend:
Assay in all cases: NCI tumour cell line growth inhibition, 48 h
[1] = system: 786-0
[2] = system: A498
[3] = system: A549
[4] = system: ACHN
[5] = system: CCRF-CEM
[6] = system: COLO 205
[7] = system: DLD-1
[8] = system: DMS-114
[9] = system: DMS-273
[10] = system: EKVX
[11] = system: HCC 2998
[12] = system: HCT-116
[13] = system: HCT-15
[14] = system: HL-60
[15] = system: HOP-18
[16] = system: HOP-62
[17] = system: HOP-92
[18] = system: HT-29
[19] = system: IGROV-1
[20] = system: K562
[21] = system: KM-20L2
[22] = system: KM12
[23] = system: LOX IMVI
[24] = system: M14
[25] = system: M19-MEL
[26] = system: MOLT-4
[27] = system: Malme-3M
[28] = system: NCI-H226
[29] = system: NCI-H23
[30] = system: NCI-H460
[31] = system: OVCAR-3
[32] = system: OVCAR-4
[33] = system: OVCAR-5
[34] = system: OVCAR-8
[35] = system: RPMI-8226
[36] = system: RXF 393
[37] = system: RXF 631
[38] = system: SF-268
[39] = system: SF-295
[40] = system: SF-539
[41] = system: SK-MEL-28
[42] = system: SK-MEL-2
[43] = system: SK-MEL-5
[44] = system: SK-OV-3
[45] = system: SN12C
[46] = system: SNB-19
[47] = system: SNB-75
[48] = system: SR
[49] = system: SW-620
[50] = system: TK-10
[51] = system: U-251
[52] = system: UACC-257
[53] = system: UACC-62
[54] = system: UO-31
[55] = system: XF498
[56] = system: CAKI-1
[57] = system: LXFL 529
[58] = system: NCI-H522
[59] = system: SNB-78

`COc1ccc(C(O)/C(=C/n2ccnc2)c2ccccc2)cc1OC` (configuration not stated) was tested, and the GI50 [1] was > 100 µM (inactive), the GI50 [2] was > 100 µM (inactive) and the GI50 [3] was > 100 µM (inactive). The GI50 [4] was > 100 µM (inactive), the GI50 [5] was > 100 µM (inactive) and the GI50 [6] was > 100 µM (inactive). The GI50 [7] was > 100 µM (inactive), the GI50 [8] was > 100 µM (inactive) and the GI50 [9] was > 100 µM (inactive). For the same molecule, the GI50 [10] was > 100 µM (inactive), the GI50 [11] was > 100 µM (inactive) and the GI50 [12] was > 100 µM (inactive). For the same molecule, the GI50 [13] was greater than 100 µM, the GI50 [14] was > 100 µM (inactive) and the GI50 [15] was > 100 µM (inactive). The GI50 [16] was > 100 µM (inactive), the GI50 [17] was > 100 µM (inactive) and the GI50 [18] was > 100 µM (inactive). The GI50 [19] was > 100 µM (inactive), the GI50 [20] was > 100 µM (inactive) and the GI50 [21] was > 100 µM (inactive). For the same molecule, the GI50 [22] was > 100 µM (inactive), the GI50 [23] was > 100 µM (inactive) and the GI50 [24] was > 100 µM (inactive). The GI50 [25] was > 100 µM (inactive), the GI50 [26] was > 100 µM (inactive) and the GI50 [27] was > 100 µM (inactive). The GI50 [28] was > 100 µM (inactive), the GI50 [29] was > 100 µM (inactive) and the GI50 [30] was > 100 µM (inactive). The GI50 [31] was > 100 µM (inactive), the GI50 [32] was > 100 µM (inactive) and the GI50 [33] was > 100 µM (inactive). The GI50 [34] was > 100 µM (inactive), the GI50 [35] was > 100 µM (inactive) and the GI50 [36] was > 100 µM (inactive). For the same molecule, the GI50 [37] was > 100 µM (inactive), the GI50 [38] was > 100 µM (inactive) and the GI50 [39] was > 100 µM (inactive). The GI50 [40] was > 100 µM (inactive), the GI50 [41] was > 100 µM (inactive) and the GI50 [42] was > 100 µM (inactive). For the same molecule, the GI50 [43] was > 100 µM (inactive), the GI50 [44] was > 100 µM (inactive) and the GI50 [45] was > 100 µM (inactive). For the same molecule, the GI50 [46] was > 100 µM (inactive), the GI50 [47] was 49.4 µM (inactive) and the GI50 [48] was > 100 µM (inactive). The GI50 [49] was > 100 µM (inactive), the GI50 [50] was > 100 µM (inactive) and the GI50 [51] was > 100 µM (inactive). The GI50 [52] was > 100 µM (inactive), the GI50 [53] was > 100 µM (inactive) and the GI50 [54] was > 100 µM (inactive). For the same molecule, the GI50 [55] was > 100 µM (inactive).

In the case of `CN(C)CCCN1CCc2c([nH]c3ccccc23)C1c1cccnc1` (configuration not stated), the GI50 [1] is reported as > 100 µM (inactive), the GI50 [2] is reported as > 100 µM (inactive) and the GI50 [3] is reported as > 100 µM (inactive). The GI50 [4] was > 100 µM (inactive), the GI50 [56] was > 100 µM (inactive) and the GI50 [5] was > 100 µM (inactive). For the same molecule, the GI50 [6] was > 100 µM (inactive), the GI50 [7] was > 100 µM (inactive) and the GI50 [8] was > 100 µM (inactive). The GI50 [9] was > 100 µM (inactive), the GI50 [10] was > 100 µM (inactive) and the GI50 [11] was > 100 µM (inactive). For the same molecule, the GI50 [12] was > 100 µM (inactive), the GI50 [13] was greater than 100 µM and the GI50 [14] was > 100 µM (inactive). The GI50 [16] was > 100 µM (inactive), the GI50 [17] was 33.8 µM (inactive) and the GI50 [18] was > 100 µM (inactive). For the same molecule, the GI50 [19] was > 100 µM (inactive), the GI50 [20] was > 100 µM (inactive) and the GI50 [21] was > 100 µM (inactive). For the same molecule, the GI50 [22] was > 100 µM (inactive), the GI50 [23] was > 100 µM (inactive) and the GI50 [57] was > 100 µM (inactive). The GI50 [24] was > 100 µM (inactive), the GI50 [25] was > 100 µM (inactive) and the GI50 [26] was > 100 µM (inactive). The GI50 [27] was > 100 µM (inactive), the GI50 [28] was > 100 µM (inactive) and the GI50 [29] was > 100 µM (inactive). For the same molecule, the GI50 [30] was > 100 µM (inactive), the GI50 [58] was > 100 µM (inactive) and the GI50 [31] was > 100 µM (inactive). The GI50 [32] was > 100 µM (inactive), the GI50 [33] was > 100 µM (inactive) and the GI50 [34] was > 100 µM (inactive). For the same molecule, the GI50 [35] was > 100 µM (inactive), the GI50 [36] was > 100 µM (inactive) and the GI50 [37] was > 100 µM (inactive). The GI50 [39] was > 100 µM (inactive), the GI50 [40] was > 100 µM (inactive) and the GI50 [41] was 80 µM (inactive). The GI50 [42] was > 100 µM (inactive), the GI50 [43] was > 100 µM (inactive) and the GI50 [44] was > 100 µM (inactive). For the same molecule, the GI50 [45] was > 100 µM (inactive), the GI50 [46] was > 100 µM (inactive) and the GI50 [47] was > 100 µM (inactive). The GI50 [59] was > 100 µM (inactive), the GI50 [48] was > 100 µM (inactive) and the GI50 [49] was > 100 µM (inactive). The GI50 [50] was > 100 µM (inactive), the GI50 [51] was > 100 µM (inactive) and the GI50 [52] was > 100 µM (inactive). For the same molecule, the GI50 [53] was > 100 µM (inactive), the GI50 [54] was > 100 µM (inactive) and the GI50 [55] was > 100 µM (inactive).
